Laboratory results from patent US5221616A, “Prevention of spontaneous complement activation in mammalian biological fluids” (Quidel Corporation, priority 1988, dated 1993).

Key:
[1] = target: T1, C3 (Homo sapiens, UniProt P01024); test: iC3b fragment EIA: spontaneous C3 activation in EDTA-NHP incubated with increasing concentrations of polyhydroxyl compound in water; format: biochemical; conditions: 22° C. for 48 hr
T1 construct: 250 μL of freshly drawn EDTA-normal human plasma (EDTA-NHP); from tissue; host or cells: normal human blood plasma (EDTA plasma; in A12 also citrate and heparin plasma)
Description: FIG. 1. […] 250 μL of freshly drawn EDTA-normal human plasma (EDTA-NHP) was mixed with 0 to 250 μL of 4M β-D-glucose dissolved in deionized water. All reaction mixtures were brought up to a final reaction volume of 500 μL using deionized water as the diluent. Each reaction mixture was mixed thoroughly, incubated at 22° C. for 48 hr and assayed for iC3b fragment levels. A non-incubated control (-70° C.) was prepared by mixing 1 part EDTA-NHP with 1 part 4M β-D-glucose dissolved in deionized water. This control reaction mixture was stored at -70° C. until it was assayed in the iC3b fragment EIA along with the incubated experimental samples.
Several different polyhydroxyl compounds were individually dissolved in deionized water to obtain solutions of each compound at a concentration approaching saturation at 22° C. Freshly drawn EDTA-NHP was mixed with increasing concentrations of the polyhydroxyl compound to be tested keeping the final reaction volumes constant. For example, 250 μL of freshly drawn EDTA-NHP was mixed with 0 to 250 μL of the concentrated polyhydroxyl solution to be tested. All reaction mixtures were brought up to a final reaction volume of 500 μL using deionized water as the diluent. Each reaction mixture was mixed thoroughly and incubated at 22° C. for 48 hr. A non-incubated control was prepared for each experiment by mixing 1 part EDTA-NHP with 1 part of the concentrated polyhydroxyl solution to be tested. This control mixture was held at -70° C. until it was thawed out, along with the other experimental samples, and assayed for the occurrence of spontaneous complement activation. For this initial set of experiments, iC3b fragment levels were quantitated in all test samples using the Cytotech monoclonal antibody based EIA procedure. The first analyte selected to be measured was iC3b since, based on previously published data as outlined above, it was anticipated that the C3 protein would be the most susceptible to spontaneous activation upon storage of EDTA-NHP in vitro.
All of the EIA tests employed in these studies utilized solid-phase monoclonal antibody capture assay kit procedures (Cytotech, Inc., San Diego, Calif.). The procedure was basically the same for each EIA kit. Briefly, in the first step of each EIA assay, 100 μL of standards, controls and diluted test specimens were incubated at 22° C., i.e., room temperature, in duplicate polystyrene microtiter wells precoated with a capture monoclonal antibody which specifically reacted with the complement fragment or complex under investigation. During this first incubation period, complement fragments or complexes were bound to the monoclonal antibody coated microassay wells. A wash cycle removed unbound materials.
In the second step, 50 μL of horseradish peroxidase (HRP)-conjugated purified IgG antibody, which reacted with the captured complement fragment or complex analyte, was added to each well and incubated at 22° C. A wash cycle removed unbound conjugate.
In the third step, 100 μL of the HRP enzyme substrate ABTS (0.034% ABTS and 0.0126% H2 O2 in 100 mM sodium citrate buffer, pH 4.0) was added to each well and incubated at 22° C. The bound HRP-conjugatedantibody reacted with the ABTS substrate producing a green color which was proportional to the amount of specimen analyte bound. The HRP-enzymatic reaction was stopped upon addition of 50 μL 250 mM oxalic acid. The substrate color intensity present in each well was measured at 405 nm using an automated EIA microplate reader and the analyte concentration/mL in the original test specimen was determined for each analyte from the appropriate standard curve.
iC3b EIA: The capture mouse monoclonal antibody used to coat microtiter wells for the iC3b fragment EIA was Cytotech MoAb 013III-1.1.6.1 which reacts with a neoantigenic determinant expressed on the iC3b activation fragment of human C3.

[2] = test system: C4; test: polyhydroxyl compounds in Buffer B mixed with EDTA-NHP: C4d fragment EIA; format: biochemical, human; conditions: final concentration 2M, 22° C. for 48 hr
Description: An extensive series of experiments were conducted to examine the ability of a large variety of polyhydroxyl compounds to prevent the spontaneous activation of C in EDTA-NHP during in vitro storage at 22° C for 48 hr. EDTA-NHP was mixed with an equal volume of Buffer B containing the polyhydroxyl compound to be tested. In these experiments Buffer B consisted of 40 mM EDTA and 30 IU sodium heparin/mL dissolved in deionized water, pH 7.2. The final concentration of polyhydroxyl compound dissolved in Buffer B varied for each compound due to differences in solubility. For each set of experiments, EDTA-NHP was also diluted and mixed with an equal volume of PBS (untreated control). The EDTA-NHP samples mixed with each polyhydroxyl compound dissolved in Buffer B and the corresponding untreated controls were incubated at 22° C. for 48 hr, stored at -70° C. and subsequently assayed for C4d, iC3b, C3d,g/iC3b and Bb complement fragment levels as well as for circulating immune complex levels using the Raji Cell Replacement EIA. […] This conclusion was based upon the iC3b percent protection values determined for each of the polyhydroxyl compounds (treated samples) as listed in FIG. 14.
The concentrations, expressed as μg analyte/mL, of a number of different activation products of spontaneous complement activation were measured in the course of these experiments. In an effort to normalize the data obtained from the various determinations so that the results from different assays could be directly compared to one another, a percent protection value was calculated for each analyte measured. The precent protection values were calculated by dividing the μg analyte/mL in the non-incubated, time-zero control sample by the μg analyte/mL in the experimental sample, multiplied by 100%. A percent protection value of 70 to 130% for any given analyte measured in an experimental sample was considered to indicate that the invention formulation tested was fully effective at providing protection against the occurrence of spontaneous complement activation. Ideally, the effective composition formulation would provide full protection against the occurrence of spontaneous complement activation in a complement-containing sample for all of the analytes measured. In fact, this was the case with several polyhydroxyl compounds when they were present in sufficiently high concentrations in a preferred embodiment of the invention.

T1 sequence (P01024 672-1663 limits assumed): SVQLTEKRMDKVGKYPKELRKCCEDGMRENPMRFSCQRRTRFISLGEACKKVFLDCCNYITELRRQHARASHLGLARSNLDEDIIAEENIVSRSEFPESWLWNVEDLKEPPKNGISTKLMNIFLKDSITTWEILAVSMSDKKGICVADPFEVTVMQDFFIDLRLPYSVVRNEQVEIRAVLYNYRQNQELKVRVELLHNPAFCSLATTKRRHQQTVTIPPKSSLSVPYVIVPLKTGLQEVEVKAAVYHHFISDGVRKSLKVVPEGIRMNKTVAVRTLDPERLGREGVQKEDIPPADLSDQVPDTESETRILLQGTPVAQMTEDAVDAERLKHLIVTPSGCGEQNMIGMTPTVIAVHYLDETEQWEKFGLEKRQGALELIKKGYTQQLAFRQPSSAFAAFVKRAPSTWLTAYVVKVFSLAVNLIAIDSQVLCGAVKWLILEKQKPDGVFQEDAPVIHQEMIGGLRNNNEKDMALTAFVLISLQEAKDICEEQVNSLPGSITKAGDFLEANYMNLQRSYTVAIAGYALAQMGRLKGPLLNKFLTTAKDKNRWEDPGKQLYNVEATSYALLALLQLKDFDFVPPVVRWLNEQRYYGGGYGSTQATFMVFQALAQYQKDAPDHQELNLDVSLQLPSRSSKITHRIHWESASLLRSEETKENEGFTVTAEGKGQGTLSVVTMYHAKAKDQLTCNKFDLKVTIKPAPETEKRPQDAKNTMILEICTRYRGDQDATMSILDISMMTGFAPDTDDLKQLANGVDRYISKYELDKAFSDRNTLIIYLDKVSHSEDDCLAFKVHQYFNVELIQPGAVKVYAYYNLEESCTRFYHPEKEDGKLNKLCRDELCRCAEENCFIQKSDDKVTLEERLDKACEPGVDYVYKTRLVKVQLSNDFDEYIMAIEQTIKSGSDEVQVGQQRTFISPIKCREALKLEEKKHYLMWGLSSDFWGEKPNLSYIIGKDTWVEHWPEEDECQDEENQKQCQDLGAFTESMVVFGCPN
T1 sequence (P01024 23-667 limits assumed): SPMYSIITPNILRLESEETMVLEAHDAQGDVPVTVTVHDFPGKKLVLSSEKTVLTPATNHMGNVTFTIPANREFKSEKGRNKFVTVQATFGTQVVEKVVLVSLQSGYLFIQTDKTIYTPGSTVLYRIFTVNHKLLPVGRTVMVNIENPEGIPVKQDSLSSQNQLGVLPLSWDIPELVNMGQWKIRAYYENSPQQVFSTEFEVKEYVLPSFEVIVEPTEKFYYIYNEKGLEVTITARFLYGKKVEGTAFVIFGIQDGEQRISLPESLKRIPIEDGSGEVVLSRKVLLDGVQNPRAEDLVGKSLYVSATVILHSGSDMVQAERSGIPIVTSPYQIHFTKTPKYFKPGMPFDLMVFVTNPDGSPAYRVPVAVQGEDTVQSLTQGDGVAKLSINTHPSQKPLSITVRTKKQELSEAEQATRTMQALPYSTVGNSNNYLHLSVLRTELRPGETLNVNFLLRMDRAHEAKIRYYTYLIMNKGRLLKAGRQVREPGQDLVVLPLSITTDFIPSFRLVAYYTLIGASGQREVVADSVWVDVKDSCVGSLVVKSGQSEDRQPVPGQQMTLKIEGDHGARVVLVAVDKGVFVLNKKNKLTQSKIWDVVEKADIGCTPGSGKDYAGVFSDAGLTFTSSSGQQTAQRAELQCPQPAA

- final concentration that completely prevented spontaneous iC3b fragment production ([1]; compared with -70° C. control): ≥ 1.3 M
- spontaneous iC3b fragment production ([1]; increasing final concentrations of compound (galactose up to 2M)): inhibited with increasing concentrations
SMILES: OC[C@H]1O[C@@H](O)[C@H](O)[C@@H](O)[C@@H]1O [β-D-glucose]
- prevention of spontaneous activation of C4 (C4d fragment production) [2]: completely prevented
